Data published in patent US4806532A, “Inhibition of epithelial phosphate transport” (Mayo Foundation for Medical Education and Research, priority 1985, dated 1989).
Structures can show the parent of a compound that is named as a salt.

What was measured:
Na-Pi cotransporter [1] = target: T1, Na-Pi cotransporter (Rattus norvegicus, UniProt Q9JJ09); assay: Na+-gradient-dependent 32Pi uptake by intestinal BBMV; format: biochemical; settings: 1 mM; for effect on initial 32P uptake by intestinal BBMV (in words): FIG. 4, Table 7; for 32Pi-phosphate uptake 30 sec: initial phase, rat small intestine BBMV, control 75 ± 3
T1 construct: The intestinal BBMV fractions were prepared from mucosa of rat small intestine; from tissue; host or cells: rat small intestine mucosa, brush border membrane vesicles
T1 sequence (Q9JJ09 1-695): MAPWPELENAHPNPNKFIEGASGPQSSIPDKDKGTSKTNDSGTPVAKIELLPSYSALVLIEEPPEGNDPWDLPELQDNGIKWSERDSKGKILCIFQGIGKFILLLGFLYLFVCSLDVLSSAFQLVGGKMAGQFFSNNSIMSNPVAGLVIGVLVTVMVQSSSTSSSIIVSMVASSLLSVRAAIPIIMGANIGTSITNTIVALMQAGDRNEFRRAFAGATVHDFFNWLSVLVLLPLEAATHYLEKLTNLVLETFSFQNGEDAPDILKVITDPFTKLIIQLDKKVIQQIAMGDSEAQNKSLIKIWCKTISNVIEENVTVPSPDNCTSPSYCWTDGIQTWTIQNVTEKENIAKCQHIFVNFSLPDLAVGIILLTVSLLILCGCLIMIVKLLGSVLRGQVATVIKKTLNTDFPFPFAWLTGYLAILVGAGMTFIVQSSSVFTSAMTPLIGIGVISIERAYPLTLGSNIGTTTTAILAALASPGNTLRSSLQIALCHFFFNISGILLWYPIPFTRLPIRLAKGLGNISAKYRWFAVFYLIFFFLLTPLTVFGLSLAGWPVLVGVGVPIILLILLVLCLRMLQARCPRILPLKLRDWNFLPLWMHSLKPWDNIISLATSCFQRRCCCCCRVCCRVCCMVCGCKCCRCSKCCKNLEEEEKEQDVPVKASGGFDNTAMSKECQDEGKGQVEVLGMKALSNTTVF
Experimental: (§1) The intestinal BBMV fractions were prepared from mucosa of rat small intestine of rats using the modified magnesium- precipitation method as described by B. Steiger and H. Murer [Eur. J. Biochem., 135, 95 (1983)]. This intestinal BBMV fraction is analogous to the BBMV fraction isolated from kidney. The uptake of ^32 Pi in the presence of Na^+ -gradient [Nao^+ >Nai^+ ] was determined by a rapid filtration technique similar to that employed in the transport measurements on renal BBMV. The Na^+ -gradient [Nao^+ >Nai^+ ]-dependent Pi uptake in the initial phase was measured after 30 sec. The ^32 Pi uptake at equilibrium was measured at 180 min.

Na-Pi cotransporter [2] = assay: as above; format: biochemical, rat; settings: 1 mM; equilibrium; rat small intestine BBMV; control 151 ± 4
Experimental: as §1

SMILES | effect on initial 32P uptake by intestinal BBMV (in words) (Na-Pi cotransporter [1]) | 32Pi-phosphate uptake 30 sec (Na-Pi cotransporter [1]) [pmoles/mg protein] | 32Pi-phosphate uptake 180 min (Na-Pi cotransporter [2]) [pmoles/mg protein]
O=C(O)CP(=O)(O)O [PAA, phosphonoacetic acid] | markedly inhibited | 51 ± 0.3 | 163 ± 6
O=C(O)P(=O)(O)O [TPFA, Phosphonoformic acid, trisodium salt hexahydrate] | markedly inhibited | 44 ± 2 | 146 ± 5
